According to US7138145B2, “Method and apparatus for ozination of grain” (priority 2001, dated 2006):

How the values were obtained:
[1] = test system: insects; details: fumigation of the grain; cited from earlier work
[2] = test system: mold, fungus, and some bacteria; details: fumigation of the grain; cited from earlier work
[3] = test system: insects; assay: ozonation of grain stored in an elevator: killing of insects
Source text: (§1) It is an object of some embodiments of the present invention to provide a method for treating grain for fungus, mold, bacteria, dust, and insects by exposing the grain to a high concentration of ozone for an extended period of time. The present invention utilizes a powerful fan or fans placed at the bottom of the grain storage facility such as, for example, a silo or grain elevator to draw down through the grain a flow of gas containing ozone between 50 and 100 ppm. Ozone generators placed in the head space at the top of the elevator produce ozone in a concentration in excess of 100 ppm. Monitors placed in this head space assure that the ozone concentration remains at these levels. If the ozone generators are not capable of maintaining the concentration at 100 ppm in the head space, then the draw is reduced by slowing the fan speed. A duct takes drawn gases from the bottom of the elevator and re-circulates those gases into the head space to reduce the amount of ozone needed to be generated during a second pass. To assure that the gases come in contact with all of the grain in the elevator, a technique labeled “pulling the core” is utilized wherein a quantity of grain is removed from the bottom of the elevator at its center to remove a column of grain from the core of the column of grain thereby evenly distribute the grain within the elevator. The material which is pulled from the core is then sent back to the top of the column and evenly distributed across the top.
(§2) The following discussion is directed towards grain stored within a vertical elevator 10. […] In one embodiment, a quantity of ozone is injected into a grain bin, vessel, or truck prior to the grain being loaded into said container in order to treat the grain for mold, bacteria, fungi, and biological load as the grain is loaded. […] In this embodiment, the loading bin is partially enclosed and has injected therein a sufficient quantity of ozone to create a concentration of approximately 100 ppm within the loading bin and the enclosed auger. […]

[4] = test system: mold, bacteria, and fungus; assay: ozonation of grain stored in an elevator: treatment of mold, bacteria and fungus
Source text: as §1, §2

[5] = flow of gas containing ozone between 50 and 100 ppm
[6] = ozone concentration maintained for three days
[7] = ozone drawn through grain, over 100 ppm in head space, 50 ppm at bottom of column

Row | Structure (SMILES) | effect of fumigation on insects [1] | effect of fumigation on mold, fungus and some bacteria [2] | time within which some insects begin to die [3, 5] | destruction of insects [3, 6] | exposure after which some insects are killed [3, 7] [h] | time within which mold and bacteria begin to die [4, 5] | destruction of mold, bacteria and fungus [4, 6] | time after which smell from mold and fungus disappears [4, 7] [h]
1 | CBr [methyl bromide] | effective at killing insects | not been effective | – | – | – | – | – | –
2 | O=[O+][O-] [ozone] | – | – | twenty-four | almost all insect, mold, bacteria, and fungus will be destroyed | 12 | twenty-four | almost all insect, mold, bacteria, and fungus will be destroyed | 24
3 | P [phosphine] | effective at killing insects | not been effective | – | – | – | – | – | –
